System: whole blood glucose
Assay: In vivo delivery of insulin to fasted rats via oral gavage (whole blood glucose)
Set-up: species or system rat
Settings: male Sprague-Dawley rats, delivery agent 200 mg/kg with insulin (human recombinant) 0.5 mg/kg
Method: Insulin (human recombinant) was obtained from ICN Biomedicals (Aurora, Ohio) as a bulk powder. To prepare stock solutions, insulin was dissolved in deionized water (pH˜6.5) to obtain a concentration of 15 mg/ml. Stock solutions were kept frozen at −20° C. in 1.0-ml aliquots until used. For dosing solutions, delivery agent was dissolved in deionized water to obtain a final concentration of 200 mg/ml. The free acid form of delivery agent was converted to the sodium salt by adding one equivalent of sodium hydroxide. Solutions were vortexed, sonicated, and heated, and if necessary, additional sodium hydroxide was added in μl quantities to achieve uniform solubility. Solutions were adjusted to a pH of 3.5-8.5 by the addition of either hydrochloric acid or sodium hydroxide. Insulin stock (typically 66.7 μls) was then added to the delivery agent solution to obtain a final concentration of 0.5 mg/ml. After solubilization and drug addition, solutions were brought to final volume by the addition of deionized water.
Insulin was administered to male, Sprague-Dawley rats either alone or in combination with an Emisphere delivery agent by oral gavage (PO). Rats were fasted for 18-24 hours prior to dosing. For dosing, a Rusch 8 French catheter was cut to 11 cm in length and adapted to fit a 1-ml syringe. The syringe was filled with dosing solution and the catheter was wiped dry of excess solution. The catheter was inserted into the rat mouth and fed down the esophagus (10.0 cm). The dosing solution was delivered by pressing the syringe plunger while holding the rat in an upright position.
During blood sampling, rats were exposed briefly (˜10 sec) to carbon dioxide until prostrate, immediately prior to each sampling time point. For blood sampling, a 77-mm capillary tube was inserted into the retroorbital sinus. Typically, blood samples were collected prior to dosing (time 0) and at 15, 30, 45, and 60 minutes after dosing. Samples were collected into Capiject® tubes (Terumo Corporation, Tokyo, Japan) containing a clot activator (red top, serum separator tubes). Samples were allowed to clot for ˜20 min at 4° C. After clotting, samples were centrifuged at 10,000 rpm for 4 minutes at 6° C. in order to separate the serum. Serum was collected into eppendorf tubes and frozen at −20° C. until assayed.
In order to determine the pharmacodynamic response, a hand-held glucometer (OneTouch Ultra, LifeScan® (Johnson & Johnson, New Brunswick, N.J.)) was used to measure whole blood glucose after administration of insulin or insulin and delivery agent. Samples were collected either from the retroorbital sinus (see Sample collection and handling: Insulin) or from the tail artery (i.e. tail clip). For tail clipping, the tip of the tail was severed approximately 5 mm from the tip using a scalpel blade. After discarding the first drop of blood, a small sample (˜5-10 μl) was touched to the glucometer test strip (OneTouch Ultra, LifeScan) and a blood glucose reading was generated by the meter. For each subsequent sampling time point, the clot formed at the tip of the tail was broken up and a fresh sample was collected. Typically, samples were collected prior to dosing (time 0) and at 15, 30, 45, and 60 minutes after dosing.
Concentrations of insulin were quantified in rat serum using a sandwich-type ELISA (kit; Diagnostic Systems Laboratories, Inc., Webster, Tex.). The calibrated assay range was 12.5-250.0 μlU/mL. Serum from rats was obtained internally from stock animals and used to prepare calibration standards and low and high quality control samples (LQC, HQC). The low and high quality control samples for the second curve were prepared at 30 and 150 μlU/mL, respectively. Calibration standards were prepared fresh daily and quality control samples were stored at a nominal temperature of −20° C. Concentration values (test samples) were read from the standard curve, averaged for each time point (n=5), and plotted as mean serum concentration of insulin (±SEM) versus time. […]

Structure (SMILES)	% Glucose Cmin (Rat) [%]
Cc1cccc(OCCC(=O)O)c1 [Compound 6, 3-m-Tolyloxy-propionic acid]	−29.3
Cc1cc(C)cc(OCCC(=O)O)c1 [Compound 3, 3-(3,5-Dimethyl-phenoxy)-propionic acid]	−16.6
O=C(O)CCOc1ccccc1Cl [Compound 1, 3-2-Chloro-phenoxy-propionic acid]	−47.0
Cc1ccccc1OCCC(=O)O [Compound 8, 3-o-Tolyloxy-propionic acid]	−24.2
Cc1cccc(C)c1OCCC(=O)O [Compound 7, 3-(2,6-Dimethyl-phenoxy)-propionic acid]	−42.1
Cc1ccc(C)c(OCCC(=O)O)c1 [Compound 4, 3-(2,5-Dimethyl-phenoxy)-propionic acid]	−39.6
Cc1ccc(OCCC(=O)O)c(C)c1 [Compound 9, 3-(2,4-Dimethyl-phenoxy)-propionic acid]	−40.3
Cc1ccc(OCCC(=O)O)cc1C [Compound 2, 3-(3,4-Dimethyl-phenoxy)-propionic acid]	−48.2
Cc1cccc(OCCC(=O)O)c1C [Compound 5, 3-(2,3-Dimethyl-phenoxy)-propionic acid]	−22.2
